Values of other authors, collected in EP4631497A1, “LIPOSOMAL COMPOSITION FOR TOPICAL ADMINISTRATION” (priority 2024, dated 2025).
Like-named read-outs stand apart in the source and are kept apart here.

Row | Wasserlöslichkeit (water) | Wasserlöslichkeit (bei 25°C) | SMILES
1 | < 1 mg/mL | – | C[C@@H]1O[C@@H](O[C@H]2[C@H](Oc3cc(O)c4c(c3)O[C@H](c3ccc(O)cc3)CC4=O)O[C@H](CO)[C@@H](O)[C@@H]2O)[C@H](O)[C@H](O)[C@H]1O [Naringin]
2 | – | < 0,1 mg/ml | O=C(CCc1ccc(O)cc1)c1c(O)cc(O)cc1O [Phloretin]
3 | – | < 0,1 mg/ml | Oc1ccc(C=Cc2cc(O)cc(O)c2)cc1 [Resveratrol]
4 | – | < 1 mg/mL | O=C1c2c(O)cc(O)cc2O[C@H](c2ccc(O)c(O)c2)[C@H]1O [Taxifolin]
